Experimental data published in PubChem BioAssay AID1963970 (Molecular Pharmacology Branch, DTP, NCI, 2024).
pIC50: −log10 of the molar value.

Test system: 931267-113-T-J1-PDC multicell spheroid viability
Test: Anticancer human tumor 931267-113-T-J1-PDC patient-derived colon adenocarcinoma cell line growth inhibition [PI3K]
Conditions: for pIC50: curve of first compound; for viability, T/C: stronger effect = lower value; active means viability on the fitted dose curve at most 10% of control; inactive means the rest
Summary of the method: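 Tumor cells grown as multi-cell spheroids with HUVEC endothelial cells and MSC fibroblast-like stroma were treated with targeted agents combined with inavolisib, alpelisib, duvelisib or copanlisib. Doses fell in half-log steps from near clinical Cmax, else from 10 microM. Viability was measured.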

[1] = second compound 0.00316 µM, first compound 0.0316 µM
[2] = second compound 0.00316 µM, first compound 0.1 µM
[3] = second compound 0.00316 µM, first compound 0.316 µM
[4] = second compound 0.00316 µM, first compound 1 µM
[5] = second compound 0.00316 µM, first compound 3.16 µM
[6] = second compound 0.00316 µM, first compound 10 µM
[7] = second compound 0.01 µM, first compound 0.0316 µM
[8] = second compound 0.01 µM, first compound 0.1 µM
[9] = second compound 0.01 µM, first compound 0.316 µM
[10] = second compound 0.01 µM, first compound 1 µM
[11] = second compound 0.01 µM, first compound 3.16 µM
[12] = second compound 0.01 µM, first compound 10 µM
[13] = second compound 0.0316 µM, first compound 0.0316 µM
[14] = second compound 0.0316 µM, first compound 0.1 µM
[15] = second compound 0.0316 µM, first compound 0.316 µM
[16] = second compound 0.0316 µM, first compound 1 µM
[17] = second compound 0.0316 µM, first compound 3.16 µM
[18] = second compound 0.0316 µM, first compound 10 µM
[19] = second compound 0.1 µM, first compound 0.0316 µM
[20] = second compound 0.1 µM, first compound 0.1 µM
[21] = second compound 0.1 µM, first compound 0.316 µM
[22] = second compound 0.1 µM, first compound 1 µM
[23] = second compound 0.1 µM, first compound 3.16 µM
[24] = second compound 0.1 µM, first compound 10 µM
[25] = second compound 0.316 µM, first compound 0.0316 µM
[26] = second compound 0.316 µM, first compound 0.1 µM
[27] = second compound 0.316 µM, first compound 0.316 µM
[28] = second compound 0.316 µM, first compound 1 µM
[29] = second compound 0.316 µM, first compound 3.16 µM
[30] = second compound 0.316 µM, first compound 10 µM
[31] = second compound 1 µM, first compound 0.0316 µM
[32] = second compound 1 µM, first compound 0.1 µM
[33] = second compound 1 µM, first compound 0.316 µM
[34] = second compound 1 µM, first compound 1 µM
[35] = second compound 1 µM, first compound 3.16 µM
[36] = second compound 1 µM, first compound 10 µM
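Further: viability read 7 days after compound addition.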

CC(C)NCC(C(=O)N1CCN(c2ncnc3c2C(C)CC3O)CC1)c1ccc(Cl)cc1 (stereo not drawn) + COc1c(OCCCN2CCOCC2)ccc2c3n(c(=NC(=O)c4cnc(N)nc4)nc12)CCN3
> 7.50: pIC50 (second compound 0.316 µM) | pIC50 (second compound 1 µM)
< 5.00: pIC50 (second compound 0.00316 µM) | pIC50 (second compound 0.01 µM) | pIC50 (second compound 0.0316 µM) | pIC50 (second compound 0.1 µM)
inactive: viability, T/C [1] 94.2% | viability, T/C [2] 96.2% | viability, T/C [3] 94.3% | viability, T/C [4] 94.7% | viability, T/C [5] 95% | viability, T/C [6] 71.1% | viability, T/C [7] 96.3% | viability, T/C [8] 93.7% | viability, T/C [9] 93.2% | viability, T/C [10] 91.2% | viability, T/C [11] 97.8% | viability, T/C [12] 71.4% | viability, T/C [13] 84.9% | viability, T/C [14] 84.9% | viability, T/C [15] 81.8% | viability, T/C [16] 81.6% | viability, T/C [17] 83.3% | viability, T/C [18] 65.8% | viability, T/C [19] 67.8% | viability, T/C [20] 71.1% | viability, T/C [21] 71.6% | viability, T/C [22] 69.7% | viability, T/C [23] 67.5% | viability, T/C [24] 55.7% | viability, T/C [25] 43.6% | viability, T/C [26] 44.8% | viability, T/C [27] 44% | viability, T/C [28] 47.7% | viability, T/C [29] 49.2% | viability, T/C [30] 44.1% | viability, T/C [31] 32.9% | viability, T/C [32] 30.8% | viability, T/C [33] 35.8% | viability, T/C [34] 31% | viability, T/C [35] 42% | viability, T/C [36] 33.3%

CCN1CCN(Cc2ccc(Nc3ncc(F)c(-c4cc(F)c5nc(C)n(C(C)C)c5c4)n3)nc2)CC1 + COc1c(OCCCN2CCOCC2)ccc2c3n(c(=NC(=O)c4cnc(N)nc4)nc12)CCN3
> 8.50: pIC50 (second compound 0.316 µM) | pIC50 (second compound 1 µM)
7.05: pIC50 (second compound 0.1 µM)
< 6.00: pIC50 (second compound 0.00316 µM) | pIC50 (second compound 0.01 µM) | pIC50 (second compound 0.0316 µM)
inactive: viability, T/C (second compound 0.00316 µM, first compound 0.00316 µM) 91.3% | viability, T/C (second compound 0.00316 µM, first compound 0.01 µM) 105% | viability, T/C [1] 97.3% | viability, T/C [2] 98.7% | viability, T/C [3] 94.2% | viability, T/C [4] 81.7% | viability, T/C (second compound 0.01 µM, first compound 0.00316 µM) 103% | viability, T/C (second compound 0.01 µM, first compound 0.01 µM) 89.4% | viability, T/C [7] 87.6% | viability, T/C [8] 90.2% | viability, T/C [9] 89% | viability, T/C [10] 67% | viability, T/C (second compound 0.0316 µM, first compound 0.00316 µM) 84.3% | viability, T/C (second compound 0.0316 µM, first compound 0.01 µM) 79.1% | viability, T/C [13] 76.8% | viability, T/C [14] 70.8% | viability, T/C [15] 67.2% | viability, T/C [16] 55.5% | viability, T/C (second compound 0.1 µM, first compound 0.00316 µM) 66.3% | viability, T/C (second compound 0.1 µM, first compound 0.01 µM) 65.6% | viability, T/C [19] 57.2% | viability, T/C [20] 47.5% | viability, T/C [21] 49.2% | viability, T/C [22] 50.8% | viability, T/C (second compound 0.316 µM, first compound 0.00316 µM) 53.5% | viability, T/C (second compound 0.316 µM, first compound 0.01 µM) 44.7% | viability, T/C [25] 39.6% | viability, T/C [26] 37.3% | viability, T/C [27] 41.6% | viability, T/C [28] 45% | viability, T/C (second compound 1 µM, first compound 0.00316 µM) 33.6% | viability, T/C (second compound 1 µM, first compound 0.01 µM) 35.6% | viability, T/C [31] 25.3% | viability, T/C [32] 32.3% | viability, T/C [33] 35.9% | viability, T/C [34] 36.7%

Cn1ncc(Cl)c1-c1cc(C(=O)NC(CN)Cc2cccc(F)c2)sc1Cl (stereo not drawn) + COc1c(OCCCN2CCOCC2)ccc2c3n(c(=NC(=O)c4cnc(N)nc4)nc12)CCN3
5.23: pIC50 (second compound 0.00316 µM)
inactive: viability, T/C [1] 95.1% | viability, T/C [2] 102% | viability, T/C [3] 89.5% | viability, T/C [4] 81.8% | viability, T/C [5] 75.9% | viability, T/C [6] 30.8% | viability, T/C [7] 109% | viability, T/C [8] 95.4% | viability, T/C [9] 87.4% | viability, T/C [10] 76% | viability, T/C [11] 69.6% | viability, T/C [12] 35.6% | viability, T/C [13] 90% | viability, T/C [14] 93.2% | viability, T/C [15] 82.4% | viability, T/C [16] 75.3% | viability, T/C [17] 60.2% | viability, T/C [18] 34% | viability, T/C [19] 71.1% | viability, T/C [20] 70.3% | viability, T/C [21] 70.1% | viability, T/C [22] 60% | viability, T/C [23] 54.3% | viability, T/C [24] 32.2% | viability, T/C [25] 47.9% | viability, T/C [26] 50.4% | viability, T/C [27] 45.2% | viability, T/C [28] 47.3% | viability, T/C [29] 47.5% | viability, T/C [30] 22.1% | viability, T/C [31] 34.7% | viability, T/C [32] 35.6% | viability, T/C [33] 35.5% | viability, T/C [34] 33.9% | viability, T/C [35] 34.8% | viability, T/C [36] 20%
5.24: pIC50 (second compound 0.01 µM)
> 7.50: pIC50 (second compound 0.316 µM) | pIC50 (second compound 1 µM)
5.31: pIC50 (second compound 0.0316 µM)
5.44: pIC50 (second compound 0.1 µM)

Cn1nccc1Nc1nccc(-c2ccn(C(CO)c3ccc(Cl)c(F)c3)c(=O)c2)n1 (stereo not drawn) + COc1c(OCCCN2CCOCC2)ccc2c3n(c(=NC(=O)c4cnc(N)nc4)nc12)CCN3
5.91: pIC50 (second compound 0.0316 µM)
inactive: viability, T/C [1] 94.7% | viability, T/C [2] 82.3% | viability, T/C [3] 83.2% | viability, T/C [4] 77.4% | viability, T/C [5] 52.2% | viability, T/C [6] 32.1% | viability, T/C [7] 97.6% | viability, T/C [8] 98% | viability, T/C [9] 79.2% | viability, T/C [10] 67.5% | viability, T/C [11] 48.5% | viability, T/C [12] 22.4% | viability, T/C [13] 79.7% | viability, T/C [14] 77% | viability, T/C [15] 68% | viability, T/C [16] 55.6% | viability, T/C [17] 30.6% | viability, T/C [18] 16.1% | viability, T/C [19] 70% | viability, T/C [20] 67.4% | viability, T/C [21] 52.4% | viability, T/C [22] 37.4% | viability, T/C [23] 21.9% | viability, T/C [24] 10.3% | viability, T/C [25] 42.7% | viability, T/C [26] 40.2% | viability, T/C [27] 35% | viability, T/C [28] 23.7% | viability, T/C [29] 13.8% | viability, T/C [31] 32.7% | viability, T/C [32] 29.6% | viability, T/C [33] 27.3% | viability, T/C [34] 18.4% | viability, T/C [35] 9.42%
5.56: pIC50 (second compound 0.01 µM)
5.42: pIC50 (second compound 0.00316 µM)
6.38: pIC50 (second compound 0.1 µM)
active: viability, T/C [30] 6.64% | viability, T/C [36] 5.13%
> 7.50: pIC50 (second compound 0.316 µM) | pIC50 (second compound 1 µM)
